target: T1, Recombinant human His-tagged Trim24-PHD-bromodomain (Homo sapiens, UniProt O15164); test: Trim24 AlphaScreen Assay; type: binding; details: 5 nM Trim24 protein, 15 nM biotinylated H3K23ac (1-33aa) peptide
T1 construct: Recombinant human His-tagged Trim24-PHD-bromodomain (produced in-house); made in house
T1 sequence (O15164 824-1006 limits assumed): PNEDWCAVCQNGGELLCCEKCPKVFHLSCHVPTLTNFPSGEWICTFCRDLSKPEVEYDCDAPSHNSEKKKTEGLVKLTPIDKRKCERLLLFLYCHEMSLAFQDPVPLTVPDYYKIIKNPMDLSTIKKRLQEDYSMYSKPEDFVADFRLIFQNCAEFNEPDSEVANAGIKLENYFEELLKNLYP
Summary of the method: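 His-tagged Trim24-PHD-bromodomain, biotinylated H3K23ac (1-33aa) peptide and compound incubated 1 h at room temperature in 50 mM Hepes pH 7.5, 100 mM NaCl, 0.12 mM Triton X-100.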

Q: With `CN(C)CCCCOc1cccc(Oc2cc3c(cc2NS(=O)(=O)c2cn(C)cn2)n(C)c(=O)n3C)c1` [Example 9, N-(6-(3-(4-(dimethylamino)butoxy)phenoxy)-1,3-dimethyl-2-oxo-2,3-dihydro-1H-benzo[d]imidazol-5-yl)-1-methyl-1H-imidazole-4-sulfonamide 2,2,2-trifluoroacetate] as the compound, how does the IC50 read?
A: Its IC50 is greater than 1 µM.

Q: How did the IC50 turn out when `Cn1c(=O)n(C)c2cc(Oc3cccc(OCc4ccccc4)c3)c(NS(=O)(=O)CCO)cc21` [Example 81, N-(6-(3-(benzyloxy)phenoxy)-1,3-dimethyl-2-oxo-2,3-dihydro-1H-benzo[d]imidazol-5-yl)-2-hydroxyethane-1-sulfonamide] was run?
A: Its IC50 is greater than 1 µM.

Q: With `Cc1nc(S(=O)(=O)Nc2cc3c(cc2Oc2cccc(OCC(F)(F)F)c2)n(C)c(=O)n3C)cn1C` [Example 67, N-(1,3-dimethyl-2-oxo-6-(3-(2,2,2-trifluoroethoxy)phenoxy)-2,3-dihydro-1H-benzo[d]imidazol-5-yl)-1,2-dimethyl-1H-imidazole-4-sulfonamide] as the compound, how does the IC50 read?
A: The IC50 was 0.01 to 0.1 µM.

Q: How did the IC50 turn out when `CCCOc1cc(OCCCOC)cc(Oc2cc3c(cc2NS(=O)(=O)c2cn(C(C)C)c(C)n2)n(C)c(=O)n3C)c1` [Example 139, 1-isopropyl-N-(6-(3-(3-methoxypropoxy)-5-propoxyphenoxy)-1,3-dimethyl-2-oxo-2,3-dihydro-1H-benzo[d]imidazol-5-yl)-2-methyl-1H-imidazole-4-sulfonamide] was run?
A: Its IC50 is 0.01 to 0.1 µM.

Q: With `CCCOc1cc(OCCCCN2CCC(O)C2)cc(Oc2cc3c(cc2NS(=O)(=O)c2ccc(OC)c(OC)c2)n(C)c(=O)n3C)c1` (stereo not drawn) [Example 247, N-(6-{3-[4-(3-hydroxypyrrolidin-1-yl)butoxy]-5-propoxyphenoxy}-1,3-dimethyl-2-oxo-2,3-dihydro-1H-1,3-benzodiazol-5-yl)-3,4-dimethoxybenzene-1-sulfonamide] as the compound, how does the IC50 read?
A: The IC50 was 0.01 to 0.1 µM.

Q: Which IC50 does the source give for `CCCOc1cc(OCCCCCCN)cc(Oc2cc3c(cc2NS(=O)(=O)C2CC2)n(C)c(=O)n3C)c1` [Example 218, N-(6-(3-((6-aminohexyl)oxy)-5-propoxyphenoxy)-1,3-dimethyl-2-oxo-2,3-dihydro-1H-benzo[d]imidazol-5-yl)cyclopropanesulfonamide] here?
A: The IC50 was 0.01 to 0.1 µM.

Q: How did the IC50 turn out when `COc1cc(OCC(C)C)cc(Oc2cc3c(cc2NS(=O)(=O)c2cn(C)c(C)n2)n(C)c(=O)n3C)c1` [Example 66, N-(6-(3-isobutoxy-5-methoxyphenoxy)-1,3-dimethyl-2-oxo-2,3-dihydro-1H-benzo[d]imidazol-5-yl)-1,2-dimethyl-1H-imidazole-4-sulfonamide] was run?
A: The IC50 was 0.01 to 0.1 µM.

Q: `COC(=O)c1cccc(S(=O)(=O)Nc2cc3c(cc2Oc2cccc(OCC(F)(F)F)c2)n(C)c(=O)n3C)c1` [Example 192, methyl 3-(N-(1,3-dimethyl-2-oxo-6-(3-(2,2,2-trifluoroethoxy)phenoxy)-2,3-dihydro-1H-benzo[d]imidazol-5-yl)sulfamoyl)benzoate] was tested. Which IC50 did it give?
A: Its IC50 is 0.01 to 0.1 µM.

Q: For `Cn1c(=O)n(C)c2cc(Oc3cccc(OCC(F)(F)F)c3)c(NS(=O)(=O)C3CCOC3)cc21` (stereo not drawn) [Example 95, N-(1,3-dimethyl-2-oxo-6-(3-(2,2,2-trifluoroethoxy)phenoxy)-2,3-dihydro-1H-benzo[d]imidazol-5-yl)tetrahydrofuran-3-sulfonamide], which IC50 is on record?
A: The IC50 was 0.1 to 1 µM.

Q: Which IC50 does the source give for `CCCOc1cc(OCCCCN2CCCC2)cc(Oc2cc3c(cc2NS(=O)(=O)c2ccc(OC)c(OC)c2)n(C)c(=O)n3C)c1` [Example 250, N-(1,3-dimethyl-2-oxo-6-{3-propoxy-5-[4-(pyrrolidin-1-yl)butoxy]phenoxy}-2,3-dihydro-1H-1,3-benzodiazol-5-yl)-3,4-dimethoxybenzene-1-sulfonamide] here?
A: Its IC50 is 0.01 to 0.1 µM.

Q: Which IC50 does the source give for `CCCOc1cc(OCCCOC)cc(Oc2cc3c(cc2NS(=O)(=O)c2cnn(C)c2)n(C)c(=O)n3C)c1` [Example 153, N-(6-(3-(3-methoxypropoxy)-5-propoxyphenoxy)-1,3-dimethyl-2-oxo-2,3-dihydro-1H-benzo[d]imidazol-5-yl)-1-methyl-1H-pyrazole-4-sulfonamide] here?
A: Its IC50 is 0.01 to 0.1 µM.

Q: For `Cc1cc(S(=O)(=O)Nc2cc3c(cc2Oc2cccc(OCc4ccccc4)c2)n(C)c(=O)n3C)n(C)n1` [Example 79, N-(6-(3-(benzyloxy)phenoxy)-1,3-dimethyl-2-oxo-2,3-dihydro-1H-benzo[d]imidazol-5-yl)-1,3-dimethyl-1H-pyrazole-5-sulfonamide], which IC50 is on record?
A: The IC50 was greater than 1 µM.

Q: With `Cn1c(=O)n(C)c2cc(Oc3cccc(OCc4ccccc4)c3)c(NS(=O)(=O)c3ccc4c(c3)OCO4)cc21` [Example 36, N-(6-(3-(benzyloxy)phenoxy)-1,3-dimethyl-2-oxo-2,3-dihydro-1H-benzo[d]imidazol-5-yl)benzo[d][1,3]dioxole-5-sulfonamide] as the compound, how does the IC50 read?
A: Its IC50 is 0.1 to 1 µM.

Q: For `CCCOc1cc(OCCCCCCN)cc(Oc2cc3c(cc2NS(=O)(=O)c2cccnc2)n(C)c(=O)n3C)c1` [Example 183, N-(6-(3-((6-aminohexyl)oxy)-5-propoxyphenoxy)-1,3-dimethyl-2-oxo-2,3-dihydro-1H-benzo[d]imidazol-5-yl)pyridine-3-sulfonamide], which IC50 is on record?
A: Its IC50 is 0.001 to 0.01 µM.

Q: With `COc1ccc(S(=O)(=O)Nc2cc3c(cc2Oc2cccc(OCc4ccccc4)c2)n(C)c(=O)n3C)cc1OC` [Example 1, N-(6-(3-(benzyloxy)phenoxy)-1,3-dimethyl-2-oxo-2,3-dihydro-1H-benzo[d]imidazol-5-yl)-3,4-dimethoxybenzenesulfonamide] as the compound, how does the IC50 read?
A: Its IC50 is 0.1 to 1 µM.

Q: How did the IC50 turn out when `Cn1cnc(S(=O)(=O)Nc2cc3c(cc2Oc2cccc(OCC#N)c2)n(C)c(=O)n3C)c1` [Example 76, N-(6-(3-(cyanomethoxy)phenoxy)-1,3-dimethyl-2-oxo-2,3-dihydro-1H-benzo[d]imidazol-5-yl)-1-methyl-1H-imidazole-4-sulfonamide] was run?
A: Its IC50 is 0.1 to 1 µM.

Q: With `CCCOc1cc(OCCCOC)cc(Oc2cc3c(cc2NS(=O)(=O)c2cccc(OC)c2)n(C)c(=O)n3C)c1` [Example 151, 3-methoxy-N-(6-(3-(3-methoxypropoxy)-5-propoxyphenoxy)-1,3-dimethyl-2-oxo-2,3-dihydro-1H-benzo[d]imidazol-5-yl)benzenesulfonamide] as the compound, how does the IC50 read?
A: Its IC50 is 0.01 to 0.1 µM.

Q: For `Cn1cc(S(=O)(=O)Nc2cc3c(cc2Oc2cccc(OC(F)(F)F)c2)n(C)c(=O)n3C)cn1` [Example 73, N-(1,3-dimethyl-2-oxo-6-(3-(trifluoromethoxy)phenoxy)-2,3-dihydro-1H-benzo[d]imidazol-5-yl)-1-methyl-1H-pyrazole-4-sulfonamide], which IC50 is on record?
A: Its IC50 is greater than 1 µM.

Q: Which IC50 does the source give for `COc1ccc(S(=O)(=O)Nc2cc3c(cc2Oc2cc(OCCCCCCN)cc(OCC(F)(F)F)c2)n(C)c(=O)n3C)cn1` [Example 203, N-(6-(3-((6-aminohexyl)oxy)-5-(2,2,2-trifluoroethoxy)phenoxy)-1,3-dimethyl-2-oxo-2,3-dihydro-1H-benzo[d]imidazol-5-yl)-6-methoxypyridine-3-sulfonamide] here?
A: Its IC50 is 0.01 to 0.1 µM.

Q: Which IC50 does the source give for `CCCOc1cccc(Oc2cc3c(cc2NS(=O)(=O)c2cccc(C(=O)O)c2)n(C)c(=O)n3C)c1` [Example 208, 3-(N-(1,3-dimethyl-2-oxo-6-(3-propoxyphenxoy)-2,3-dihydro-1H-benzo[d]imidazol-5-yl)sulfamoyl)benzoic acid] here?
A: The IC50 was 0.01 to 0.1 µM.

Q: Which IC50 does the source give for `CCCOc1cc(OCCCCCCN)cc(Oc2cc3c(cc2N(C)S(=O)(=O)c2ccc(OC)c(OC)c2)n(C)c(=O)n3C)c1` [Example 245, N-(6-(3-((6-aminohexyl)oxy)-5-propoxyphenoxy)-1,3-dimethyl-2-oxo-2,3-dihydro-1H-benzo[d]imidazol-5-yl)-3,4-dimethoxy-N-methylbenzenesulfonamide] here?
A: Its IC50 is 0.1 to 1 µM.

From patent US20160060260A1, “BROMODOMAIN INHIBITORS FOR TREATING DISEASE” (Board of Regents, The University of Texas System, priority 2014, published 2016)
